# In PMC10154249, “Unique progerin C-terminal peptide ameliorates Hutchinson–Gilford progeria syndrome phenotype by rescuing BUBR1” (Nature Aging, 2023):
# Ends that are not written are not given here.
# Experiments:
# [1] = in vivo; cited from earlier work
# Description: (§1) At present, clinical drugs for HGPS are very rare except for Zokinvy (lonafarnib), which has been approved by the United States (US) Food and Drug Administration (FDA). […] Recently, some gene therapies for HGPS treatment have been developed. The clustered regularly interspaced short palindromic repeat–adeno-associated virus 9 system is used to reduce the expression of progerin and the adenine base editor–adeno-ass ...
# HEK-293T cells = test: Immunofluorescence localization of Flag-progerin-C in HEK-293T cells; assay type: cell-based; settings: Flag-progerin-C expressed in HEK-293T
# Method: (§2) Immunofluorescence was performed as described previously. Cells were plated on cover slips in 12-well plates, left overnight before the treatment. Cells were fixed in 1% formaldehyde in culture medium for 10 min at 37 °C and permeabilized with 0.2% Triton X-100 in PBS for 10 min at room temperature. Cells were washed twice in PBS and blocked for 1 h with 5% BSA in PBS and then incubated with primary antibodies at 4 °C overnight, washed three times in PBS and incubated with secondary antibodies for 1 h at room temperature. Cell nuclei were counterstained with a 500 nM concentration of 4,6-diamidino-2-phenylindole (DAPI) (Sigma). Images were acquired by a fluorescence microscope (OLYMPUS FV-1000, Carl Zeiss LSM880 or Leica DMi8) and analyzed with software NIS-Elements AR v.5.0.1 (Nikon), FLUOVIEW v.4.2b (OLYMPUS), ZEN v.2.3 SP1 (Carl Zeiss) and Leica Application Suite X v.3.6.0.24 (Leica). Cells were quantified by investigators who were blinded to the identity of the analyzed cell.
# [2] = tested on: progerin–BUBR1 interaction; test: CoIP of progerin and BUBR1 in HEK-293T cells; assay type: cell-based; settings: HEK-293T cotransfected with Flag-progerin-C 5, 10, 15 μg and HA-progerin
# Method: Detailed descriptions of CoIP were described previously[55],[56]. Cells were harvested and washed three times in cold PBS, then lysed in CoIP buffer (25 mM Tris-HCl (pH 7.5), 150 mM KCl, 5 mM EDTA, and 0.5% NP-40) plus protease inhibitor cocktail tablet (Roche). Incubate on ice and shock lysates on the vortex shaker 15 times for 30 s each. Microcentrifuge in 12,000g for 15 min at 4 °C, collect the supernatant, and incubate with 3 μg primary antibodies with gentle shaking overnight at 4 °C, followed by adding 20–40 μl Pure Proteome Protein A/G Mix Magnetic Beads (Millipore, catalog no. […]02) for 3 h. Wash the beads three times with 1 ml CoIP buffer for 8 min each, resuspend in 50 μl 1× loading buffer, and incubate at 100 °C for 8 min. Throw beads away and analyze by immunoblotting.
# HGPS cells = settings: cited from earlier work
# Description: as §1
# [3] = tested on: BUBR1 / CyclinA2 in HGADFN003 cells; test: Western blot of BUBR1 and CyclinA2 in HGADFN003 cells; assay type: cell-based, human; settings: HGADFN003
# Method: Western blot was performed as previously described. Cells were lysed in 1× Laemmli sample buffer after washing twice in cold PBS without calcium and magnesium. Protein concentrations were determined using the bicinchoninic acid (BCA) protein assay. Protein lysates were subjected to SDS–PAGE, transferred to 0.45-μm pore size hydrophobic PVDF transfer membrane (Merck Millipore), detected with the appropriate primary antibodies coupled with horseradish peroxidase-conjugated corresponding secondary antibodies, and visualized using enhanced chemiluminescence ECL reagent (GE Healthcare). The Tanon 5500 high-definition low-illumination CCD system (Tanon FLI Capture v.1.02) was used to capture chemiluminescent signals.
# HGADFN003 cells [4] = test: Ki67 immunofluorescence of HGADFN003 cells; assay type: cell-based, human; settings: for Ki67 positive cells: HGADFN003, Extended Data Fig. 10e
# Method: as §2
# [5] = tested on: BUBR1–progerin interaction; test: Immunofluorescence of BUBR1 in IMR90 cells with FTI or UPCP; assay type: cell-based, human
# Method: as §2
# HGADFN003 cells [6] = test: SA-β-gal staining of HGADFN003 cells; assay type: cell-based, human; settings: for SA-β-gal positive cells: HGADFN003, Extended Data Fig. 10c
# Method: SA-β-gal staining was performed as previously described. Cells were fixed in 0.5% glutaraldehyde for 15 min at room temperature, washed three times with PBS (pH 6.0) containing 1 mM MgCl2 and exposed overnight 37 °C to containing 1 mg ml^–1 5-bromo-4-chloro-3-indolyl-β-D-galactopyranoside (MCE, catalog no. HY-15934), 0.12 mM potassium ferrocyanide (Sigma, catalog no. P3289), 0.12 mM potassium ferricyanide (Sigma, catalog no. P8131) and 1 mM MgCl2 PBS buffer (pH 6.0). Cells were washed three times with H2O and observed under a microscope (OLYMPUS CKX53). SA-β-gal positive cells were quantified by investigators who were blinded to the identity of the analyzed cell.
molecule,measurement,setting,value
"NC(=O)N1CCC(CC(=O)N2CCC([C@H]3c4ncc(Br)cc4CCc4cc(Cl)cc(Br)c43)CC2)CC1 [Zokinvy (lonafarnib), lonafarnib]",adverse reactions,[1],diarrhea and vomiting
"progerin-C: progerin C-terminal region (aa residues 565–614), expressed in cells (HHGSHCSSSGDPAEYNLRSRTVLCGTCGQPADKASASGSGAQSPQNCSIM; cysteine pairing not given here; also: 3×Flag tag, end not given here)",cellular location,HEK-293T cells,distributed throughout the cell
same,competition with progerin to bind BUBR1,[2],competes with progerin to bind BUBR1
neuropeptide Y,cellular HGPS aging phenotype,HGPS cells,delays the cellular HGPS aging phenotype by stimulating autophagy and decreasing progerin accumulation
"COC(=O)[C@H](CCSC)NC(=O)c1ccc(NC[C@@H](N)CS)cc1-c1ccccc1 [FTI-277, reference compound]","BUBR1 expression (FTI-277/UPCP comparison, words)",[3],increasing expression of BUBR1
same,"CyclinA2 expression (FTI-277/UPCP comparison, words)",[3],"increasing expression of BUBR1, CyclinA2"
same,"Ki67 expression (FTI-277/UPCP comparison, words)",HGADFN003 cells [4]; HGADFN003,"increasing expression of BUBR1, CyclinA2 and Ki67"
same,Ki67 positive cells,HGADFN003 cells [4]; replicate 1,57%
same,Ki67 positive cells,HGADFN003 cells [4]; replicate 2,61%
same,Ki67 positive cells,HGADFN003 cells [4]; replicate 3,75%
same,block of the interaction of BUBR1 and progerin,[5],failed to block the interaction of BUBR1 and progerin
same,"SA-β-gal activity (FTI-277/UPCP comparison, words)",HGADFN003 cells [6]; HGADFN003,decreased the activity of SA-β-gal
same,SA-β-gal positive cells,HGADFN003 cells [6]; replicate 1,20%
same,SA-β-gal positive cells,HGADFN003 cells [6]; replicate 2,15%
same,SA-β-gal positive cells,HGADFN003 cells [6]; replicate 3,13%
